From patent US20230414615A1, “PYRIMIDINONE COMPOUNDS FOR TREATING ACUTE INFLAMMATION” (TES Pharma S.r.l., priority 2022, published 2023)

Key:
[1] = tested on: co-culture of primary hepatocytes and stellate cells; assay: Gene expression in co-culture of primary hepatocytes and stellate cells after free fatty acid mix; format: cell-based; details: 5 μM; after 6 hr exposure to palmitate (0.33 mM) and oleate (0.66 mM)
primary hepatocytes [2] = assay: SIRT1 activation in primary hepatocytes; format: cell-based; details: 500 nM; 24 hrs after treatment
primary hepatocytes [3] = assay: NAD+ biosynthesis in primary hepatocytes; format: cell-based
[4] = tested on: co-culture of primary hepatocytes and stellate cells; assay: Cytokine secretion in co-culture of primary hepatocytes and stellate cells following LPS-induced inflammation; format: cell-based; details: LPS 50 ng/mL; for secretion of IL-1β: 1 μM
[5] = tested on: human primary bone marrow mononuclear cells (BMMCs); assay: LPS-induced cytokine secretion in human primary bone marrow mononuclear cells (BMMCs); format: cell-based; details: for secretion of TNFα: BMMC cells, LPS 50 ng/mL
[6] = tested on: co-culture primary hepatocytes and Kupffer cells; assay: IL-6 secretion in co-culture of primary hepatocytes and Kupffer cells following LPS-induced inflammation; format: cell-based; details: LPS 50 ng/mL; stated as dose-dependent
Kupffer cells [7] = assay: Cytokine secretion in Kupffer cells following LPS-induced inflammation (Bio-Plex); format: cell-based, mouse; details: LPS 50 ng/mL; for secretion of IL-1β / secretion of IL-6: 1 μM
Excerpt: […] Cells treated with DMSO were used as control at the final concentration of 0.5% in medium. All the wells were normalized with DMSO at 0.5% final concentration. The supernatant was collected to measure cytokine secretion using a Bio-Plex Pro mouse cytokine 23-plex assay system (cat #M60009RDPD) using a Bio-Plex Instrument. The cells were washed once with PBS, and then lysed to extract total RNA for performing RT-PCR to evaluate ACMSD modulation of IL-10, SIRT1, and STAT3 gene expression.
All cytokine secretion values were normalized to the luminescent signal relative to the measuring of the cellular ATP (CellTiter-Glo cat #G7571)).

primary hepatocytes [8] = assay: Gene expression / mRNA levels in primary hepatocytes; format: cell-based, mouse; details: for mRNA levels of mitochondrial genes TFAM, Ndufa, Uqcrc1, CytC, Atp5g1 and CS: mouse primary hepatocytes after 24 hr treatment
[9] = tested on: kidney proximal tubular HK2 cells; assay: NAD+ biosynthesis in kidney proximal tubular HK2 cells; format: cell-based
rat renal NRK52E cells = assay: OPA-1 expression in rat renal NRK52E cells following Cisplatin insult; format: cell-based; details: via SIRT-3 activation; following Cisplatin insult (100 μM)
liver and kidneys = assay: Transcription of mitochondrial genes in liver and kidneys after administration of ACMSD inhibitors; format: in vivo
Kupffer cells [10] = assay: NAD+ biosynthesis in Kupffer cells; format: cell-based
[11] = tested on: mouse primary hepatocytes; assay: SOD2 activity in mouse primary hepatocytes; format: cell-based; details: treatment for 24 hrs; stated as dose-dependent
HK2 primary tubule cells = assay: Gene expression in HK2 (HK-2) primary tubule cells, basal or after Cisplatin insult; format: cell-based
HK2 cells = assay: TGF-β-induced fibrosis in HK2 (renal tubular) cells; format: cell-based
Protocol: (§1) MATERIALS AND METHODS: Treatment with Compound I-18 in presence of LPS for 24 h has been performed to evaluate anti inflammatory properties and M1 to M2 transition. Renal tubular cells were stimulated with Compound I-18 and TGFβ for 16 hrs to evaluate the expression of genes involved in fibrosis. Compound 1-18 (50 mg/kg) was dosed daily in mice treated with LPS 15 mg/kg. Survival percentage and liver gene modulation has been monitored in Sham groups, LPS and LPS+Compound 1-18 groups (n=8). 12-15 week old mice underwent CLP (50% ligation, thru-and-thru puncture with 21G needle) to evaluate CLP-induced sepsis. Compound I-18 was dosed at the concentration of 50 mg/kg for 7 days from CLP. Survival percentage and expression of genes involved in renal inflammation has been monitored.

Kupffer cells [12] = assay: Gene expression (RT-PCR) in Kupffer cells; format: cell-based, mouse
Protocol: 200,000 Kupffer cells were plated out in a 24 well plate and the ACMSD inhibitor (e.g. compounds of present disclosure, compound of Formula I, Ia, Ib, and II) (5 μM) was added 1 hr before the cells were stimulated with LPS overnight 50 ng/ml (1 mg/mL stock solution in H2O, dispensed at 50 ng/mL in the well) final concentration. Cells treated with DMSO were used as control at the final concentration of 0.5% in medium. All the wells were normalized with DMSO at 0.5% final concentration. The supernatant was collected to measure cytokine secretion using a Bio-Plex Pro mouse cytokine 23-plex assay system (cat #M60009RDPD) using a Bio-Plex Instrument. The cells were washed once with PBS, and then lysed to extract total RNA for performing RT-PCR to evaluate ACMSD modulation of IL-10, SIRT1, and STAT3 gene expression.
Briefly, total RNA was extracted from the cells using the manufacturer's protocol for Qiagen RNeasy Plus Mini Kit (cat. 74134). The total RNA concentration was quantified using an Implen Instrument, and the purity was evaluated by measuring the ratio of A260/A280.
Total RNA (1 μg) was reverse transcribed using the manufacturer's protocol for SuperScript IV VILO Master Mix (ThermoFisher cat. #. 11756500). Real-time PCR was then performed in CFX 96 Real Time System (Bio-Rad) as follows: denaturation at 95° C. for 2 minutes, followed by 40 cycles at 95° C. for 10 s, and hybridization at 60° C. for 20 s. QPCR was performed using the 2× QuantiNova SYBR Green PCR Master Mix (Qiagen). Mouse β2 microglobulin (m 02M) was used as a reference gene.

[13] = tested on: preclinical model of liver and kidney diseases; assay: Preclinical model of liver and kidney diseases (NASH, AKI); details: in vivo
[14] = tested on: CLP-induced sepsis model in mice; assay: CLP-induced sepsis model in mice (ex-vivo kidney gene expression, survival); set-up: species or system mouse; details: IP 30 mg/kg/dose
Protocol: C57BL/6 mice (12-15 weeks old) (obtained from Charles River Laboratories) were anesthetized by intraperitoneal (i.p.) injection of a 1:1 solution of ketamine (75 mg/kg) and xylazine (15 mg/kg) (or pentobarbital (70 mg/kg)). The lower abdomen of the mouse was shaved and the area disinfected with a 70% alcohol swab. Under aseptic conditions, a 1 to 2 cm midline laparotomy was performed and the cecum exposed. The cecum was tightly ligated at the level of the second cecal artery with a 2.0 silk suture, perforated twice with a 22-gauge needle, and after expressing to allow for fecal matter to extrude, returned into the abdomen. The abdominal wall is then closed by planes using a running silk 4-0. Control animals underwent the same laparotomy and externalization of the cecum, but no ligation or perforation was performed. Animals were resuscitated with 1.0 mL of 0.9% normal saline, immediately after surgery via subcutaneous injection and recovered on thermal blankets under monitoring. Animals were then treated with 0.5 ml LRS (Q12 hours SQ for 3 days), ampicillin sulbactam (250 mg/kg Q12 hours IP for 3 days) and analgesic treatment (buprenorphine 0.05 mg/kg for 3 days).
ACMSD inhibitors (e.g. compounds of present disclosure, compound of Formula I, Ia, Ib, and II) were administered at two different timepoints: (a) an early phase timepoint i.e. at the time of CLP and (b) at 24 hours after CLP. […] Blood samples and target organ tissue (liver and kidney) were collected at the time of sacrificing for histology and biomarker measurements.
(§2) MATERIALS AND METHODS: Treatment with Compound I-18 in presence of LPS for 24 h has been performed to evaluate anti inflammatory properties and M1 to M2 transition. Renal tubular cells were stimulated with Compound I-18 and TGFβ for 16 hrs to evaluate the expression of genes involved in fibrosis. […] Survival percentage and liver gene modulation has been monitored in Sham groups, LPS and LPS+Compound 1-18 groups (n=8). […] Survival percentage and expression of genes involved in renal inflammation has been monitored.

murine Kupffer cells = assay: M1/M2 polarisation of murine Kupffer cells treated with LPS; format: cell-based, mouse
Protocol: as §1

[15] = mRNA levels of mitochondrial and oxidative stress genes (cell type not stated); format: cell-based; details: 100 μM
C57BL/6 mice = assay: LPS-induced systemic inflammation in mice, survival; format: in vivo, mouse; details: 50 mg/kg dosed daily, LPS 15 mg/kg
Protocol: Male C57/6 mice (12-15 weeks old) (obtained from Charles River Laboratories) were housed under a 12 h/12 h light/dark cycle with free access to water and standard food. The mice were divided into four groups: control, control+ACMSD inhibitor, LPS, and LPS+the ACMSD inhibitor. LPS (Sigma; 20 mg/kg/d and 1 mg/ml in 0.9% normal saline) was intraperitoneally injected, and the same volume of 0.9% normal saline alone was used as controls. A dose of 15 mg/kg IP injection of the ACMSD inhibitor (e.g. compounds of present disclosure, compound of Formula I, Ia, Ib, and II) was used which was intraperitoneally injected immediately after LPS injection. An equal volume of the solvent was injected in the control and LPS alone groups. The mice were sacrificed at 24 h after various treatments and the liver and kidneys were collected for subsequent analysis.
as §2

[16] = 100 μM, HK-2 cells following cisplatin-insult
[17] = cell system not restated (follows HK2 TGF-β experiment)
[18] = murine Kupffer cells treated with LPS

## N#Cc1c(-c2cccs2)nc(SCc2cccc(-c3nn[nH]n3)c2)[nH]c1=O [Compound I-17]
[1]
  expression of IL-1β: reduced
  expression of TNFα: reduced
  expression of pro-fibrotic chemokine CTGF: reduces
  expression of pro-fibrotic cytokine TGF-β: reduces
  expression of the pro-fibrotic genes BAX, ACTA2, Col1A1, fibronectin, THBS-1 and TIMP2: reduces
Primary hepatocytes [2]
  SIRT1 activation: activate
Primary hepatocytes [3]
  NAD+ biosynthesis: restores
[4]
  secretion of IL-1β: reduces
  secretion of TNFα: reduces
[5]
  secretion of TNFα: reduces
[6]
  secretion of IL-6: reduced
Kupffer cells [7]
  secretion of IL-1β: reduces
  secretion of TNFα: reduces
Kupffer cells [7]; incubation time 24 h
  secretion of IL-6: reduced
Primary hepatocytes [8]
  mRNA levels of mitochondrial genes TFAM, Ndufa, Uqcrc1, CytC, Atp5g1 and CS: increases
Primary hepatocytes [8]; primary hepatocytes
  expression of mitochondrial SOD2: increases
Primary hepatocytes [8]; primary hepatocytes after 6 hr exposure to palmitate (0.33 mM) and oleate (0.66 mM)
  mRNA levels of fatty acid oxidation genes Mcad, Cpt1a, Hadha1, Hsl, Pdk4 and Sdha: increases
Primary hepatocytes [8]; primary hepatocytes, via SIRT-1 activation
  expression of mitochondrial transcription factor A, TFAM: increasing
[9]
  NAD+ biosynthesis: restores
Rat renal NRK52E cells
  expression of OPA-1: increasing
Liver and kidneys
  expression of the same genes (Mcad, Cpt1a, Ndufa2, Atp5g1, Sod2) in the kidneys: unaffected
  transcription of the mitochondrial genes Mcad, Cpt1a, Ndufa2, Atp5g1 and Sod2 in the liver: induces
Kupffer cells [10]
  NAD+ biosynthesis: restores
[11]
  activity of mitochondrial superoxide dismutase 2, SOD2: increases

## N#Cc1c(-c2cccs2)nc(SCc2cccc(CC(=O)O)c2)[nH]c1=O [Compound I-18]
HK2 primary tubule cells; 50 μM, HK2 primary tubule cells
  reduction of SIRT expression induced by a Cisplatin insult: reverses
HK2 primary tubule cells; [16]
  expression of OPA-1: increases
  expression of SOD2: increases
HK2 primary tubule cells; HK2 primary tubule cells
  expression of SIRT-3: increases
HK2 primary tubule cells; HK-2 cells after 24 hr treatment
  mRNA levels of mitochondrial genes Sod1, Ndufa2, Cox2 and CytC: increase
HK2 cells; TGF-β-induced fibrosis in HK2 cells
  SMAD4 expression: less modulated
HK2 cells; both preventive and therapeutic treatment, TGF-β-induced fibrosis in HK2 cells
  SMAD3: dose-dependent reduction
HK2 cells; [17]
  expression of TIMP2: dose-dependent reduction
  expression of fibronectin: dose-dependent reduction
HK2 cells; renal tubular cells stimulated with TGFβ for 16 hrs
  in vitro fibrosis in renal cells: reduced
Kupffer cells [12]
  expression of SIRT-1: increases
Kupffer cells [12]; inflammatory conditions (LPS at 50 ng/mL), beyond basal conditions
  QPRT expression: increases
Kupffer cells [12]; stated as dose-dependent
  expression of IL-10: increases
  expression of STAT3: increases
[13]
  effects in preclinical model of liver and kidney diseases, such as NASH and AKI: protective effects
[1]
  expression of TNFα: reduced
  expression of pro-fibrotic chemokine CTGF: reduces
  expression of pro-fibrotic cytokine TGF-β: reduces
  expression of the pro-fibrotic genes BAX, ACTA2, Col1A1, fibronectin, THBS-1 and TIMP2: reduces
[14]
  expression of IL-1β in ex-vivo kidney tissue samples: reduced
  expression of MCP1 in ex-vivo kidney tissue samples: reduced
  expression of TNFα in ex-vivo kidney tissue samples: reduced
Primary hepatocytes [2]
  SIRT1 activation: activate
Primary hepatocytes [3]
  NAD+ biosynthesis: restores
[4]
  secretion of IL-1β: reduces
  secretion of TNFα: reduces
[5]; 5 μM, human BMMCs
  secretion of LPS-induced IL-6: reduces
[5]
  secretion of TNFα: reduces
[6]
  secretion of IL-6: reduced
Kupffer cells [7]
  secretion of IL-1β: reduces
  secretion of TNFα: reduces
Kupffer cells [7]; incubation time 24 h
  secretion of IL-6: reduced
  secretion of IL-6, dose dependence of the reduction: in a dose-dependent manner
Primary hepatocytes [8]
  mRNA levels of mitochondrial genes TFAM, Ndufa, Uqcrc1, CytC, Atp5g1 and CS: increases
[9]
  NAD+ biosynthesis: restores
Murine Kupffer cells; in vitro, M1 induced by LPS
  polarisation of resident liver macrophages (Kupffer cells) towards an M2 phenotype (M1-to-M2 transition): promoting their conversion
Murine Kupffer cells; [18]
  M1 phenotype gene markers iNOS, IL-6 and TNFα: decrease
  M2 phenotype gene markers Arginase-1, Mannose Receptor (Mrc-2) and IL-10: increase
  anti-inflammatory M2 Kupffer macrophages / M2 macrophage phenotype: promotes
Murine Kupffer cells; murine Kupffer cells treated with LPS, dose-response manner
  pro-inflammatory M1 Kupffer macrophages: blocks
Murine Kupffer cells; two different stimuli (LPS and IL-4)
  M2 macrophage phenotype: can promote
Liver and kidneys
  expression of the same genes (Mcad, Cpt1a, Ndufa2, Atp5g1, Sod2) in the kidneys: unaffected
  transcription of the mitochondrial genes Mcad, Cpt1a, Ndufa2, Atp5g1 and Sod2 in the liver: induces
[15]
  mRNA levels of mitochondrial and oxidative stress genes CS, Ndufa2, Cox2, Atp5g1, Sod1 and Sod2: increases
Kupffer cells [10]
  NAD+ biosynthesis: restores
C57BL/6 mice
  survival in LPS-induced systemic inflammation: promotes survival
[11]
  activity of mitochondrial superoxide dismutase 2, SOD2: increases
